# Laboratory results from article PMC8398451, “Molecular Engineering of Curcumin, an Active Constituent of Curcuma longa L. (Turmeric) of the Family Zingiberaceae with Improved Antiproliferative Activity” (Plants, 2021).
# How the values were obtained:
# EKVX = test: NCI antiproliferative SRB assay, Non-Small Cell Lung Cancer panel; assay type: cell-based, Human; settings: one dose 10 µM
# NCI-H226 = test: as above; assay type: cell-based, Human; settings: one dose 10 µM
# NCI-H23 = test: as above; assay type: cell-based, Human; settings: one dose 10 µM
# NCI-H522 = test: as above; assay type: cell-based, Human; settings: one dose 10 µM
# COLO 205 = test: NCI antiproliferative SRB assay, Colon Cancer panel; assay type: cell-based, Human; settings: one dose 10 µM
# HCT-15 = test: as above; assay type: cell-based, Human; settings: one dose 10 µM
# SW-620 = test: as above; assay type: cell-based, Human; settings: one dose 10 µM
# SF-539 = test: NCI antiproliferative SRB assay, CNS Cancer panel; assay type: cell-based, Human; settings: one dose 10 µM
# MALME-3M = test: NCI antiproliferative SRB assay, Melanoma panel; assay type: cell-based, Human; settings: one dose 10 µM
# MDA-MB-435 = test: NCI antiproliferative SRB assay, Melanoma panel; assay type: cell-based; settings: one dose 10 µM
# SK-MEL-28 = test: NCI antiproliferative SRB assay, Melanoma panel; assay type: cell-based, Human; settings: one dose 10 µM
# OVCAR-3 = test: NCI antiproliferative SRB assay, Ovarian Cancer panel; assay type: cell-based, Human; settings: one dose 10 µM
# OVCAR-4 = test: as above; assay type: cell-based, Human; settings: one dose 10 µM
# NCI/ADR-RES = test: as above; assay type: cell-based, Human; settings: one dose 10 µM
# SK-OV-3 = test: as above; assay type: cell-based, Human; settings: one dose 10 µM
# A498 = test: NCI antiproliferative SRB assay, Renal Cancer panel; assay type: cell-based, Human; settings: one dose 10 µM
# SN 12C = test: as above; assay type: cell-based, Human; settings: one dose 10 µM
# MCF7 = test: NCI antiproliferative SRB assay, Breast Cancer panel; assay type: cell-based, Human; settings: one dose 10 µM
# T-47D = test: as above; assay type: cell-based, Human; settings: one dose 10 µM
# [1] = tested on: Colon Cancer cell line panel; test: NCI antiproliferative assay, panel summary; assay type: cell-based, Human; settings: 10 µM
# [2] = tested on: Renal Cancer cell line panel; test: NCI antiproliferative assay, panel summary; assay type: cell-based, Human; settings: Renal Cancer panel; 10 µM
# [3] = tested on: Breast Cancer cell line panel; test: NCI antiproliferative assay, panel summary; assay type: cell-based, Human; settings: 10 µM
# 60 NCI cancer cell lines = test: NCI antiproliferative assay, summary over all lines; assay type: cell-based; settings: mean over cell lines; one dose 10 µM
smiles,measurement,setting,value
COc1ccc(/C=C/c2cc(/C=C/c3ccc(OC)c(O)c3)n(-c3cccc(Cl)c3)c(=S)n2)cc1O [3a],%GI,EKVX,14.19%
same,GP (growth percent),EKVX,85.81
same,%GI,NCI-H226,1.46%
same,GP (growth percent),NCI-H226,98.54
same,%GI,NCI-H23,9.05%
same,GP (growth percent),NCI-H23,90.95
same,%GI,NCI-H522,62.11%
same,GP (growth percent),NCI-H522,37.89
same,%GI,COLO 205,−7.08%
same,GP (growth percent),COLO 205,107.08
same,%GI,HCT-15,6.07%
same,GP (growth percent),HCT-15,93.93
same,%GI,SW-620,10.52%
same,GP (growth percent),SW-620,89.48
same,%GI,SF-539,6.89%
same,GP (growth percent),SF-539,93.11
same,%GI,MALME-3M,10.54%
same,GP (growth percent),MALME-3M,89.46
same,%GI,MDA-MB-435,18.68%
same,GP (growth percent),MDA-MB-435,81.32
same,%GI,SK-MEL-28,7.56%
same,GP (growth percent),SK-MEL-28,92.44
same,%GI,OVCAR-3,8.70%
same,GP (growth percent),OVCAR-3,91.30
same,%GI,OVCAR-4,17.45%
same,GP (growth percent),OVCAR-4,82.55
same,%GI,NCI/ADR-RES,3.63%
same,GP (growth percent),NCI/ADR-RES,96.37
same,%GI,SK-OV-3,−0.88%
same,GP (growth percent),SK-OV-3,100.88
same,%GI,A498,−4.38%
same,GP (growth percent),A498,104.38
same,%GI,SN 12C,7.39%
same,GP (growth percent),SN 12C,92.61
same,%GI,MCF7,32.09%
same,GP (growth percent),MCF7,67.91
same,%GI,T-47D,36.18%
same,GP (growth percent),T-47D,63.82
same,Mean % GI,[1],16.72%
same,Mean % GI,[2],7.23%
same,Mean % GI,[3],26.56%
same,Mean % GI,60 NCI cancer cell lines,17.68%
same,Mean GP,60 NCI cancer cell lines,82.32
